According to PMC9387934, “Randomized single oral dose phase 1 study of safety, tolerability, and pharmacokinetics of Iminosugar UV-4 Hydrochloride (UV-4B) in healthy subjects” (PLoS Neglected Tropical Diseases, 2022):
Several values for one entry are separate records, joined by “and”; a condition that tells them apart may be missing. Equal values may be shown once.

Assay: Phase 1a single ascending dose study: UV-4 plasma concentrations and PK parameters (LC-MS/MS, noncompartmental)
Format: in vivo
Conditions: for CONCENTRATION UV4: human plasma
Protocol: UV-4 ((2R,3R,4R,5S)-2-(hydroxymethyl)-1-(9-methoxynonyl)piperidine-3,4,5-triol, also called N-(9’-methoxynonyl)-1-deoxynojirimycin, or MON-DNJ) hydrochloride was evaluated in a first-in-human, randomized, single-center, double-blind, placebo-controlled, parallel group, single ascending dose Phase 1a clinical trial in healthy subjects (Figs 1 and 2, ClinicalTrials.gov Identifier NCT02061358 https://clinicaltrials.gov/ct2/show/NCT02061358). The primary objective was to determine the safety and tolerability of a single-ascending oral dose of UV-4 hydrochloride (Fig 3). […] The secondary objective was to determine PK parameters describing absorption and elimination of UV-4 following a single oral dose of UV-4 hydrochloride. Eight cohorts of eight subjects each were enrolled and completed the study. In each cohort, six subjects received UV-4 as the hydrochloride; two received placebo. Subjects were screened against study eligibility criteria up to four weeks (Days -28 to -2) before admission to the clinic (Day -1). Dosing was performed on an inpatient basis. Subjects remained in clinic for 48 hours post-dosing for PK sample collection and safety assessments and were discharged from the clinic on Day 3. Subjects returned to the clinic on Day 4 for additional safety assessments, then again on Day 9 ± 1 for a final follow-up visit.
Eligible subjects were healthy males and females, age 18–45 years, with a body mass index between 18 and 30 kg/m^2 inclusive and a minimum body weight of 60 kg. Subjects were considered healthy based on medical history, physical exam, vital signs, 12-lead electrocardiogram (ECG), clinical laboratory tests (hematology, blood chemistry, urinalysis), viral serology, and drug and alcohol screening. Male and female subjects of childbearing potential were required to use adequate contraception over the course of the clinical trial. […] Only subjects who met all inclusion and none of the exclusion criteria prior to administration of the investigational product were enrolled into the study (no exemptions were granted). A total of 64 subjects were enrolled (eight cohorts of eight subjects each). In each of the eight cohorts, six subjects were randomized to receive a single dose of UV-4 (3 to 1000 mg, depending on cohort) as the hydrochloride salt, and two subjects to receive placebo. Cohort size of six active subjects was based on analysis that increasing cohort size above six in a first-in-human study gains little in the ability to observe a drug induced event, and results in observing more events that are not related to study drug. Two of the eight subjects in each cohort (sentinel subjects; one active and one placebo) received their doses at least 48 h before the remaining subjects in each cohort.
On each day of use, bulk drug substance (UV-4B for solubilization, SAI Life Sciences Ltd. Telangana, India) was removed from a single-use container, weighed at the study center, and solubilized in 20 mL sterile water for injection (SWFI) (Hospira Inc. Illinois, United States of America). Weight of solid drug substance was converted to dose of UV-4 by applying purity and salt correction factor per pharmacy manual when preparing the dosing solution. UV-4B solution was administered orally with 10 mL of taste-masking agent, OraSweet-SF (Paddock Laboratories LLC, Minneapolis, United States of America) in a total volume of 30 mL, to assist in maintaining study blinding. Placebo was SWFI (20 mL) plus OraSweet-SF (10 mL). Concentrations and doses were calculated and expressed as the active free base form, UV-4. This methodology is consistent with USP<1121>, which recommends that the strength of a drug product or preparation is expressed in terms of the active moiety. Following consumption of active or placebo solution, the dosing container was rinsed with 50 mL of tap water also consumed by subjects. […]

In the case of `COCCCCCCCCCN1C[C@H](O)[C@@H](O)[C@H](O)[C@H]1CO` [UV4], the “CONCENTRATION UV4 in human plasma” value (Cohort 7, nominal day 1, nominal hour 0, individual subjects) is reported as “<LLOQ (0.500) ng/mL”, the “CONCENTRATION UV4 in human plasma” value (Cohort 7, nominal day 1, nominal hour 0, subject with all samples <LLOQ) is reported as “<LLOQ (0.500) ng/mL” and the “CONCENTRATION UV4 in human plasma” value (Cohort 7, nominal day 1, nominal hour 0.5, individual subjects) is reported as 8420 ng/mL and 5960 ng/mL and 5510 ng/mL and 13200 ng/mL and 9650 ng/mL. For the same compound, the “CONCENTRATION UV4 in human plasma” value (Cohort 7, nominal day 1, nominal hour 0.5, subject with all samples <LLOQ) was “<LLOQ (0.500) ng/mL”, the “CONCENTRATION UV4 in human plasma” value (Cohort 7, nominal day 1, nominal hour 1, individual subjects) was 8390 ng/mL and 11600 ng/mL and 8700 ng/mL and 11700 ng/mL and 8870 ng/mL and the “CONCENTRATION UV4 in human plasma” value (Cohort 7, nominal day 1, nominal hour 1, subject with all samples <LLOQ) was “<LLOQ (0.500) ng/mL”. For the same compound, the “CONCENTRATION UV4 in human plasma” value (Cohort 7, nominal day 1, nominal hour 1.5, individual subjects) was 7250 ng/mL and 7490 ng/mL and 5760 ng/mL and 7510 ng/mL and 6190 ng/mL, the “CONCENTRATION UV4 in human plasma” value (Cohort 7, nominal day 1, nominal hour 1.5, subject with all samples <LLOQ) was “<LLOQ (0.500) ng/mL” and the “CONCENTRATION UV4 in human plasma” value (Cohort 7, nominal day 1, nominal hour 2, individual subjects) was 5560 ng/mL and 6260 ng/mL and 4660 ng/mL and 6160 ng/mL and 5490 ng/mL. For the same compound, the “CONCENTRATION UV4 in human plasma” value (Cohort 7, nominal day 1, nominal hour 2, subject with all samples <LLOQ) was “<LLOQ (0.500) ng/mL”, the “CONCENTRATION UV4 in human plasma” value (Cohort 7, nominal day 1, nominal hour 2.5, individual subjects) was 4270 ng/mL and 6030 ng/mL and 3950 ng/mL and 4710 ng/mL and 4800 ng/mL and the “CONCENTRATION UV4 in human plasma” value (Cohort 7, nominal day 1, nominal hour 2.5, subject with all samples <LLOQ) was “<LLOQ (0.500) ng/mL”. For the same compound, the “CONCENTRATION UV4 in human plasma” value (Cohort 7, nominal day 1, nominal hour 3, individual subjects) was 3650 ng/mL and 5660 ng/mL and 3610 ng/mL and 4080 ng/mL and 4540 ng/mL, the “CONCENTRATION UV4 in human plasma” value (Cohort 7, nominal day 1, nominal hour 3, subject with all samples <LLOQ) was “<LLOQ (0.500) ng/mL” and the “CONCENTRATION UV4 in human plasma” value (Cohort 7, nominal day 1, nominal hour 4, individual subjects) was 2230 ng/mL and 3760 ng/mL and 2630 ng/mL and 3120 ng/mL and 3370 ng/mL. For the same compound, the “CONCENTRATION UV4 in human plasma” value (Cohort 7, nominal day 1, nominal hour 4, subject with all samples <LLOQ) was “<LLOQ (0.500) ng/mL”, the “CONCENTRATION UV4 in human plasma” value (Cohort 7, nominal day 1, nominal hour 6, individual subjects) was 1120 ng/mL and 1930 ng/mL and 1770 ng/mL and 1610 ng/mL and 1730 ng/mL and the “CONCENTRATION UV4 in human plasma” value (Cohort 7, nominal day 1, nominal hour 6, subject with all samples <LLOQ) was “<LLOQ (0.500) ng/mL”. For the same compound, the “CONCENTRATION UV4 in human plasma” value (Cohort 7, nominal day 1, nominal hour 9, individual subjects) was 429 ng/mL and 642 ng/mL and 790 ng/mL and 588 ng/mL and 656 ng/mL, the “CONCENTRATION UV4 in human plasma” value (Cohort 7, nominal day 1, nominal hour 9, subject with all samples <LLOQ) was “<LLOQ (0.500) ng/mL” and the “CONCENTRATION UV4 in human plasma” value (Cohort 7, nominal day 1, nominal hour 12, individual subjects) was 184 ng/mL and 254 ng/mL and 352 ng/mL and 266 ng/mL and 301 ng/mL. The “CONCENTRATION UV4 in human plasma” value (Cohort 7, nominal day 1, nominal hour 12, subject with all samples <LLOQ) was “<LLOQ (0.500) ng/mL”, the “CONCENTRATION UV4 in human plasma” value (Cohort 7, nominal day 1, nominal hour 18, individual subjects) was 47.6 ng/mL and 69.6 ng/mL and 82.9 ng/mL and 80.3 ng/mL and 78.0 ng/mL and the “CONCENTRATION UV4 in human plasma” value (Cohort 7, nominal day 1, nominal hour 18, subject with all samples <LLOQ) was “<LLOQ (0.500) ng/mL”. The “CONCENTRATION UV4 in human plasma” value (Cohort 7, nominal day 2, nominal hour 24, individual subjects) was 58.7 ng/mL and 27.8 ng/mL and 38.9 ng/mL and 46.4 ng/mL and 45.6 ng/mL and 40.8 ng/mL, the “CONCENTRATION UV4 in human plasma” value (Cohort 7, nominal day 2, nominal hour 24, subject with all samples <LLOQ) was “<LLOQ (0.500) ng/mL” and the “CONCENTRATION UV4 in human plasma” value (Cohort 7, nominal day 2, nominal hour 36, individual subjects) was 17.4 ng/mL and 8.03 ng/mL and 10.9 ng/mL and 14.8 ng/mL and 12.7 ng/mL. For the same compound, the “CONCENTRATION UV4 in human plasma” value (Cohort 7, nominal day 2, nominal hour 36, subject with all samples <LLOQ) was “<LLOQ (0.500) ng/mL”, the “CONCENTRATION UV4 in human plasma” value (Cohort 7, nominal day 3, nominal hour 48, individual subjects) was 7.94 ng/mL and 3.58 ng/mL and 4.75 ng/mL and 6.57 ng/mL and 8.76 ng/mL and 6.60 ng/mL and the “CONCENTRATION UV4 in human plasma” value (Cohort 7, nominal day 3, nominal hour 48, subject with all samples <LLOQ) was “<LLOQ (0.500) ng/mL”. The “CONCENTRATION UV4 in human plasma” value (Cohort 8, nominal day 1, nominal hour 0, subjects with all samples <LLOQ) was “<LLOQ (0.500) ng/mL”, the “CONCENTRATION UV4 in human plasma” value (Cohort 8, nominal day 1, nominal hour 0.5, subjects with all samples <LLOQ) was “<LLOQ (0.500) ng/mL” and the “CONCENTRATION UV4 in human plasma” value (Cohort 8, nominal day 1, nominal hour 1, subjects with all samples <LLOQ) was “<LLOQ (0.500) ng/mL”. For the same compound, the “CONCENTRATION UV4 in human plasma” value (Cohort 8, nominal day 1, nominal hour 1.5, subjects with all samples <LLOQ) was “<LLOQ (0.500) ng/mL”, the “CONCENTRATION UV4 in human plasma” value (Cohort 8, nominal day 1, nominal hour 2, subjects with all samples <LLOQ) was “<LLOQ (0.500) ng/mL” and the “CONCENTRATION UV4 in human plasma” value (Cohort 8, nominal day 1, nominal hour 2.5, subjects with all samples <LLOQ) was “<LLOQ (0.500) ng/mL”. For the same compound, the “CONCENTRATION UV4 in human plasma” value (Cohort 8, nominal day 1, nominal hour 3, subjects with all samples <LLOQ) was “<LLOQ (0.500) ng/mL”, the “CONCENTRATION UV4 in human plasma” value (Cohort 8, nominal day 1, nominal hour 4, subjects with all samples <LLOQ) was “<LLOQ (0.500) ng/mL” and the “CONCENTRATION UV4 in human plasma” value (Cohort 8, nominal day 1, nominal hour 6, subjects with all samples <LLOQ) was “<LLOQ (0.500) ng/mL”. The “CONCENTRATION UV4 in human plasma” value (Cohort 8, nominal day 1, nominal hour 9, subjects with all samples <LLOQ) was “<LLOQ (0.500) ng/mL”, the “CONCENTRATION UV4 in human plasma” value (Cohort 8, nominal day 1, nominal hour 12, subjects with all samples <LLOQ) was “<LLOQ (0.500) ng/mL” and the “CONCENTRATION UV4 in human plasma” value (Cohort 8, nominal day 1, nominal hour 18, subjects with all samples <LLOQ) was “<LLOQ (0.500) ng/mL”. For the same compound, the “CONCENTRATION UV4” value (Cohort 1, nominal day 1, nominal hour 0) was “<LLOQ (0.500) ng/mL” and the “CONCENTRATION UV4” value (Cohort 1, nominal day 3, nominal hour 48) was “<LLOQ (0.500) ng/mL”.
